For data set [1], the system named is pregnant rats. Description: Abortion test on female rats. It counts as in vivo. The following applies: d5-d7 p.c., autopsy d9 p.c. The protocol:
Abortion Test on Female Rats
The action of progesterone and of the progesterone receptor is a fundamental precondition for successful pregnancy or gestation in mammals. The progesterone-antagonistic action of the inventive compounds was tested on pregnant rats (6 rats per group) on days 5 to 7 post coitum under conventional housing and feeding conditions.
After successful mating, the pregnant animals (presence of sperm in the vaginal smear on day 1 of pregnancy=d1 p.c.) were randomized and divided into the treatment group and the control group. The animals then each received subcutaneously or orally 0.15; 0.5; 1.5 or 5 mg/kg of the test compound or 1.0 ml/kg of vehicle (benzyl benzoate/castor oil: 1+4 [v/v]) daily from day 5 to day 7 (d5−d7 p.c.).
Autopsy was conducted on day 9 (d9 p.c.). As a characteristic of progesterone receptor-antagonistic action, the uterus was examined for the presence of nidation sites. Complete absence, or else the presence of pathological, haemorrhagic or otherwise abnormal nidation sites, on day 9 (d9 p.c.) was considered as abortion.

The target in data set [2] is T1, human progesterone receptor A (Homo sapiens, UniProt P06401).
T1 construct: expressed in transfected cells; host or cells: SK-N-MC human neuroblastoma cells, stably transfected with pRChPR-A-neo and pMMTV-LUC
T1 sequence (P06401 1-769 isoform P06401-2): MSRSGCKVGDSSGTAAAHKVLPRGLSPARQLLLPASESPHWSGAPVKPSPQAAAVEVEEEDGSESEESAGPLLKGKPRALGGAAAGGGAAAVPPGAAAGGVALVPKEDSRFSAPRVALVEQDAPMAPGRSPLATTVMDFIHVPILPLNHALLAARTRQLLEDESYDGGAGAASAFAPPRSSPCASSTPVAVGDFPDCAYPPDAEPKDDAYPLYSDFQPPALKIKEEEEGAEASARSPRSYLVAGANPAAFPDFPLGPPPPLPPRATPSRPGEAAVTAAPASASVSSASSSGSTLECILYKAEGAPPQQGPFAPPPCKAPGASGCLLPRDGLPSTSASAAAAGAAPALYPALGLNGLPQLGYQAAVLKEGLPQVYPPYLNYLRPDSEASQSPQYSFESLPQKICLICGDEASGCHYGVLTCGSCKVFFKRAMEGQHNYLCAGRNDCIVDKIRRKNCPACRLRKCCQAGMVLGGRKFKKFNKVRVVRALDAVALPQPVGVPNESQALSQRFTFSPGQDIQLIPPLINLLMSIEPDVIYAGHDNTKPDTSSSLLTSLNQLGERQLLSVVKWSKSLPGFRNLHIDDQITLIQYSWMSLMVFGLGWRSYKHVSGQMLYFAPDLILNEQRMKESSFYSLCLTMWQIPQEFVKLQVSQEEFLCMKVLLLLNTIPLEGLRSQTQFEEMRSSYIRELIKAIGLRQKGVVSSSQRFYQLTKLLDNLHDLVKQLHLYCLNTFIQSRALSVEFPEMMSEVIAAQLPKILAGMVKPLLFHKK
Nature of the data set: Progesterone receptor-antagonistic action in stably transfected SK-N-MC cells, PR-A, MMTV-LUC reporter. It counts as cell-based. The note with it: read-out: IC50 PR-A. In short, it runs like this: (§1)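 SK-N-MC neuroblastoma cells stably expressing human PR-A or PR-B plus MMTV-LUC reporter, treated 24 h with compound (0.01 nmol/l upward). Antagonism measured against 0.1 nmol/l promegestone; luciferase in lysates as RLU, given as % efficacy and IC50 (agonism as EC50).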

Data set [3] is described as follows: Solubility in aqueous medium at pH 7.4. In kind it is physicochemical. The note with it: for solubility: aqueous medium, pH 7.4, aqueous buffer.
The nature of data set [4]: Metabolic stability in human liver microsomes. It counts as in vitro ADME. The note with it: for Predicted clearance Human: predicted in vivo clearance from liver microsomes, well-stirred model, 1 μM; for Predicted Fmax (maximum oral bioavailability) Human: calculated from liver microsome data. The protocol:
(§2) Determination of Metabolic Stability in Human and Rat Liver Microsomes
Isolated Human Liver Microsomes (HLM) were Used to Assess the Metabolic Stability of compounds of general formula I.
(§3) The incubations were conducted with 2.4 ml of HLM solution (protein content 0.5 mg/ml), 30 μl of the test compound (final concentration 1 μM) and 0.6 ml of the cofactor mixture (═NADPH-generating system composed of 3 IU glucose-6-phosphate dehydrogenase, 14.6 mg glucose-6-phosphate, 1.2 mg NADP) at 37° C. in 100 mM phosphate buffer at pH 7.4. Samples were taken at 6 time points (2-60 min) and precipitated with an equal volume of methanol, and the recovery of the test substances used in the supernatant was determined by LC-MS/MS analysis. The half-life of substance degradation determined therefrom was used to calculate what is called the intrinsic clearance of the substance in the liver microsome preparation.

Data set [5] addresses T2, human progesterone receptor B (Homo sapiens, UniProt P06401).
T2 construct: expressed in transfected cells; host or cells: SK-N-MC human neuroblastoma cells, stably transfected with pRChPR-B-neo and pMMTV-LUC
T2 sequence (P06401 1-933): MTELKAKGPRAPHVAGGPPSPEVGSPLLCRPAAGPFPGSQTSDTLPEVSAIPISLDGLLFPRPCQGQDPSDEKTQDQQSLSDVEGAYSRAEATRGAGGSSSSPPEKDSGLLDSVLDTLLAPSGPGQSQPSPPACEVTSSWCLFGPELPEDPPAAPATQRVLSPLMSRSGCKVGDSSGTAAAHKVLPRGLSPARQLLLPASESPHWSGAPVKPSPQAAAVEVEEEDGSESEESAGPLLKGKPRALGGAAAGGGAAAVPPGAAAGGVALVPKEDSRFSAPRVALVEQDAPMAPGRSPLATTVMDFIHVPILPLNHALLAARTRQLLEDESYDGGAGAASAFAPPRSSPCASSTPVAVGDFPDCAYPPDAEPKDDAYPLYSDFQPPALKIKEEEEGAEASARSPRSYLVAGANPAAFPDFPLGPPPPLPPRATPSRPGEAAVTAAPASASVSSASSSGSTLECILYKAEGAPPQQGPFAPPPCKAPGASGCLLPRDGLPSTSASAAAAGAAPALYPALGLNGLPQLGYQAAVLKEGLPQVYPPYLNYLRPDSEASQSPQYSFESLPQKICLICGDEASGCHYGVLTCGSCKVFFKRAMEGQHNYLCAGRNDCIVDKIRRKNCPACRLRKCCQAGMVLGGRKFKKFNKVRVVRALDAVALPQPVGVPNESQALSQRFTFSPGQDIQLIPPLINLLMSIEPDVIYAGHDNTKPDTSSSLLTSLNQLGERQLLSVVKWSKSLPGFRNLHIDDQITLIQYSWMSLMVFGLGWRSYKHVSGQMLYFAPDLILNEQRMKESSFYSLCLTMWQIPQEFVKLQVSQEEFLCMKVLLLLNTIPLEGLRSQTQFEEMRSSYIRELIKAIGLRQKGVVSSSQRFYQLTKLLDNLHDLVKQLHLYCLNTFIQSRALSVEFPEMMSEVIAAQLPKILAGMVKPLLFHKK
Nature of the data set: Progesterone receptor-antagonistic action in stably transfected SK-N-MC cells, PR-B, MMTV-LUC reporter. The following applies: read-out: IC50 PR-B. It counts as cell-based. The essentials: as §1

A short description of data set [6]: Clearance and half-life after intravenous administration in rats. It counts as in vivo. The following applies: i.v. bolus 0.3-0.5 mg/kg; for CLblood: female rats.
Method: Determination of Clearance and of Half-Life after Intravenous Administration in Rats
The determination of the in vivo clearance and half-life of test substances was conducted in female rats with a body weight of approx. 200-250 g. For this purpose, the test substances (in a cassette test up to 3 different substances per animal) were administered intravenously (i.v.) into the tail vein in dissolved form at a dose of 0.3-0.5 mg/kg as a bolus in a volume of 2 ml/kg, using compatible solubilizers such as PEG400 and/or ethanol in a compatible amount. A polyurethane catheter in the jugular vein was used to take approx. 0.2 ml blood samples at the time points of 2 min, 8 min, 15 min, 30 min, 45 min, 1 h, 2 h, 4 h, 6 h, 8 h, 24 h. The blood samples were stored without shaking in lithium heparin tubes (Monovettes® from Sarstedt) and centrifuged at 3000 rpm for 15 min. An aliquot of 100 μl was taken from the supernatant (plasma) and precipitated by adding 400 μl of cold methanol. The precipitated samples were frozen at −20° C. overnight, then centrifuged again at 3000 rpm for 15 min, before 150 μl of the clear supernatant were removed to determine the concentration. The analysis was effected by means of an Agilent 1200 HPLC system with connected LC-MS/MS detection.
Calculation of the PK Parameters (Via Nonlinear Regression by PK Calculation Software):
CLplasma: total plasma clearance of the test substance (in l*kg/h),
where CLplasma=dose/AUCinf;
AUCinf: extrapolated area under the plasma concentration-time curve (in μg*h/l);
CLblood: total blood clearance of the test substance (in l*kg/h), where (CLblood=CLplasma*Cp/Cb);
Cb/Cp: ratio of the blood to plasma concentration distribution of the test substance;
T½: terminal half-life of the test substance (in h).
Data set [7] in a line: Metabolic stability in rat liver microsomes. It counts as in vitro ADME. The protocol:
as §2, §3

≈ marks a conversion by molar mass, not a printed value.

Broadly, the IC50 is the point on the concentration scale where inhibition reaches its midpoint. Broadly, the solubility is how much of the substance goes into solution per volume. Read a low solubility as little dissolved substance. With `C[C@]12C[C@H](c3ccc(C#CCO)cc3)C3=C4CCC(=O)C=C4CC[C@H]3[C@@H]1CC[C@@]2(O)C(F)(F)C(F)(F)F` [Example 1, (8S,11R,13S,14S,17S)-17-hydroxy-11-[4-(3-hydroxyprop-1-yn-1-yl)phenyl]-13-methyl-17-pentafluoroethyl-1,2,6,7,8,11,12,13,14,15,16,17-dodecahydrocyclopenta[a]phenanthren-3-one], the Abortion rate in data set [1] (daily dose 0.5 mg/kg p.o.), in data set [1] (daily dose 1.5 mg/kg p.o.) and in data set [1] (daily dose 5.0 mg/kg p.o.) was 100% throughout. Besides, the IC50 is 0.097 nM in data set [2] and 0.11 nM in data set [5]. In addition, the concentration in solution in data set [3] (solubility) was 13 µg/mL (≈ 25 µM). For the same compound, the “Predicted clearance Human” value in data set [4] is 5.33 mL/min/kg.
With `C[C@]12C[C@H](c3ccc(C#C/C=C/C#N)cc3)C3=C4CCC(=O)C=C4CCC3C1CC[C@@]2(O)C(F)(F)C(F)(F)F` (stereo partly drawn) [Example 4, (E)-5-[4-((8S,11R,13S,14S,17S)-17-hydroxy-13-methyl-3-oxo-17-pentafluoroethyl-2,3,6,7,8,11,12,13,14,15,16,17-dodecahydro-1H-cyclopenta[a]phenanthren-1′-yl)phenyl]pent-2-en-4-ynenitrile], the results for the IC50 in data set [2] and in data set [5] were 0.2 nM and 0.1 nM, respectively. In addition, in data set [3], the solubility came out at 8 µg/mL (≈ 14.8 µM). The “Predicted clearance Human” value in data set [4] was 1.5 mL/min/kg. Besides, the CLblood in data set [6] is 55 ± 21.7 mL/min/kg. Besides, the half-life in data set [6] (female, rat, plasma, iv, read-out: t1/2 (terminal half-life)) is at least 1 h.
Consider `C[C@]12C[C@H](c3ccc(C#Cc4ccc(C(=O)O)cc4)cc3)C3=C4CCC(=O)C=C4CC[C@H]3[C@@H]1CC[C@@]2(O)C(F)(F)C(F)(F)F` [Example 16, 4-[4-((8S,11R,13S,14S,17S)-17-hydroxy-13-methyl-3-oxo-17-pentafluoroethyl-2,3,6,7,8,11,12,13,14,15,16,17-dodecahydro-1H-cyclopenta[a]phenanthren-11-yl)phenylethynyl]benzoic acid], for which the Abortion rate in data set [1] (daily dose 0.5 mg/kg p.o.) turned out to be 0%; in data set [1] (daily dose 1.5 mg/kg p.o.) it was 16.7%; in data set [1] (daily dose 5.0 mg/kg p.o.), 100%. Further, the IC50 in data set [2] was found to be 0.1 nM; in data set [5] it was 0.05 nM. The “solubility (in words)” value in data set [3] (aqueous medium under physiological conditions) is given as “improved solubility”. Also, in data set [3], the solubility came out at 204 µg/mL (≈ 334 µM). Moreover, the “Predicted clearance Human” value in data set [4] is 5.5 mL/min/kg. This compound displayed a CLblood in data set [6] of 35 ± 8.3 mL/min/kg.
As for `C[C@]12C[C@H](c3ccc(C#CCNC(=O)Nc4ccccc4)cc3)C3=C4CCC(=O)C=C4CC[C@H]3[C@@H]1CC[C@@]2(O)C(F)(F)C(F)(F)F` [Example 34, 1-{3-[4-((8S,11R,13S,14S,17S)-17-hydroxy-13-methyl-3-oxo-17-pentafluoroethyl-2,3,6,7,8,11,12,13,14,15,16,17-dodecahydro-1H-cyclopenta[a]phenanthren-11-yl)phenyl]prop-2-ynyl}-3-phenylurea], the IC50 in data set [2] and in data set [5] was 0.1 nM throughout. The compound also registered a solubility in data set [3] of 7 µg/mL (≈ 11 µM). In addition, the “Predicted Fmax (maximum oral bioavailability) Human” value (shortened to “Predicted Fmax”) in data set [4] is given as 9%. The “Predicted clearance Human” value in data set [4] was 20.2 mL/min/kg.
For the compound `C[C@]12C[C@H](c3ccc(C#CCNC(=O)Nc4ccc(F)cc4)cc3)C3=C4CCC(=O)C=C4CC[C@H]3[C@@H]1CC[C@@]2(O)C(F)(F)C(F)(F)F` [Example 36, 1-{3-[4-((8S,11R,13S,14S,17S)-17-hydroxy-13-methyl-3-oxo-17-pentafluoroethyl-2,3,6,7,8,11,12,13,14,15,16,17-dodecahydro-1H-cyclopenta[a]phenanthren-11-yl)phenyl]prop-2-ynyl}-3-(4-fluorophenyl)urea], in data set [2], the IC50 came out at 0.1 nM. Further, in data set [3], the solubility was 4 µg/mL (≈ 6.09 µM). Further, in data set [4], the “Predicted Fmax” value is recorded as 55% and the “Predicted clearance Human” value is 10 mL/min/kg. For the same compound, the IC50 in data set [5] was 0.2 nM.
Regarding `C[C@]12C[C@H](c3ccc(CO)cc3)C3=C4CCC(=O)C=C4CC[C@H]3[C@@H]1CC[C@@]2(O)C(F)(F)C(F)(F)F` [Ref. 1*, (8S,11R,13S,14S,17S)-17-hydroxy-11-[4-(hydroxymethyl)phenyl]-13-methyl-17-pentafluoroethyl-1,2,6,7,8,11,12,13,14,15,16,17-dodecahydrocyclopenta[a]phenanthren-3-one, reference compound], in data set [2], the IC50 is 0.4 nM. The compound further displayed a solubility in data set [3] of 17 µg/mL (≈ 34.2 µM). Besides, in data set [4], the “Predicted Fmax” value is listed as 42% and the “Predicted clearance Human” value is 12 mL/min/kg. In addition, in data set [7], the “predicted maximum bioavailability in rats (in words)” value is listed as “good”. Also, the IC50 in data set [5] came out at 0.3 nM.

The values are drawn from patent publication US9102701B2, “17-hydroxy-17-pentafluoroethyl-estra-4,9(10)-diene-11-ethynylphenyl derivatives, methods for the production thereof and use thereof for treating diseases” (Bayer Intellectual Property GmbH, priority 2009, dated 2015).
